The values that follow are results of earlier work, collected in patent EP3572069A1, “INCREASING SOLUBILITY AND BIOAVAILABILITY OF ENZALUTAMIDE” (Zentiva K.S., priority 2018, dated 2019).

For data set [1] the following is noted: not told.
The conditions of data set [2]: background statement, no test described.

Consider `CNC(=O)c1ccc(N2C(=S)N(c3ccc(C#N)c(C(F)(F)F)c3)C(=O)C2(C)C)cc1F` [Enzalutamide, 4-(3-(4-cyano-3-(trifluoromethyl)phenyl)-5,5-dimethyl-4-oxo-2-thioxo-1-imidazolidinyl)-2-fluoro-N-methyl-benzamide], for which the Permeability entry in data set [1] is listed as “high permeability”.
In the case of `CNC(=O)c1ccc(N2C(=S)N(c3ccc(C#N)c(C(F)(F)F)c3)C(=O)C2(C)C)cc1F` [Amorphous form of enzalutamide, 4-(3-(4-cyano-3-(trifluoromethyl)phenyl)-5,5-dimethyl-4-oxo-2-thioxo-1-imidazolidinyl)-2-fluoro-N-methyl-benzamide], in data set [2], the Solubility entry is recorded as “dissolves better”.
`CNC(=O)c1ccc(N2C(=S)N(c3ccc(C#N)c(C(F)(F)F)c3)C(=O)C2(C)C)cc1F` [Crystalline enzalutamide, 4-(3-(4-cyano-3-(trifluoromethyl)phenyl)-5,5-dimethyl-4-oxo-2-thioxo-1-imidazolidinyl)-2-fluoro-N-methyl-benzamide]: the Solubility result in data set [2] is recorded as “very poorly soluble”.
